# Source: patent US8785470B2, “Heterocyclic compounds and uses thereof” (Infinity Pharmaceuticals, Inc., priority 2011, dated 2014)
# Read-outs that look alike come from different tables or passages of the source.
# Tests used:
# [1] = system: phospho-AKT in RAW 264.7 cells (PI3Kγ); experiment: PI3Kγ selective assay, phospho-AKT in RAW 264.7 cells; assay type: cell-based; conditions: Mus musculus, RAW264.7, stimulated with C5a, read-out: IC50 for phospho-AKT, RAW 264.7 cell model
# Text: A compound's ability in selectively inhibiting PI3Kγ can be assessed using RAW264.7 macrophages. Briefly, serum-starved PAW264.7 cells are stimulated with a known GPCR agonist C5a. (See, e.g., Camps et al., Nature Medicine (2005) 11(9): 936-943). Cells can be treated with test compounds prior to, simultaneously with, or subsequent to the stimulation by C5a. RAW 264.7 cells respond to the complement component fragment C5a through activation of the C5a receptor, and the C5a receptor activates macrophages and induces cell migration. Test compounds' ability to inhibit C5a-mediated AKT phosphorylation is indicative of selective inhibition of PI3Kγ. Thus, by monitoring the reduction of phospho-AKT in stimulated RAW 264.7 cells (using for example, phospho-AKT antibodies), a compound's potential efficacy in selectively inhibiting PI3Kγ can be assessed.
# PI3Kα = target: T1, PI3Kα (Homo sapiens, UniProt P42336); experiment: PI3-Kinase HTRF assay, PI3Kα; assay type: biochemical; conditions: bins Greater than 10 μM and Greater than 1 μM to 10 μM; 10 μM ATP, PIP2 at 10 μM; read-out: IC50 P13Kα
# T1 construct: purchased Millipore Corporation 14-602-K
# T1 sequence (P42336 whole entry): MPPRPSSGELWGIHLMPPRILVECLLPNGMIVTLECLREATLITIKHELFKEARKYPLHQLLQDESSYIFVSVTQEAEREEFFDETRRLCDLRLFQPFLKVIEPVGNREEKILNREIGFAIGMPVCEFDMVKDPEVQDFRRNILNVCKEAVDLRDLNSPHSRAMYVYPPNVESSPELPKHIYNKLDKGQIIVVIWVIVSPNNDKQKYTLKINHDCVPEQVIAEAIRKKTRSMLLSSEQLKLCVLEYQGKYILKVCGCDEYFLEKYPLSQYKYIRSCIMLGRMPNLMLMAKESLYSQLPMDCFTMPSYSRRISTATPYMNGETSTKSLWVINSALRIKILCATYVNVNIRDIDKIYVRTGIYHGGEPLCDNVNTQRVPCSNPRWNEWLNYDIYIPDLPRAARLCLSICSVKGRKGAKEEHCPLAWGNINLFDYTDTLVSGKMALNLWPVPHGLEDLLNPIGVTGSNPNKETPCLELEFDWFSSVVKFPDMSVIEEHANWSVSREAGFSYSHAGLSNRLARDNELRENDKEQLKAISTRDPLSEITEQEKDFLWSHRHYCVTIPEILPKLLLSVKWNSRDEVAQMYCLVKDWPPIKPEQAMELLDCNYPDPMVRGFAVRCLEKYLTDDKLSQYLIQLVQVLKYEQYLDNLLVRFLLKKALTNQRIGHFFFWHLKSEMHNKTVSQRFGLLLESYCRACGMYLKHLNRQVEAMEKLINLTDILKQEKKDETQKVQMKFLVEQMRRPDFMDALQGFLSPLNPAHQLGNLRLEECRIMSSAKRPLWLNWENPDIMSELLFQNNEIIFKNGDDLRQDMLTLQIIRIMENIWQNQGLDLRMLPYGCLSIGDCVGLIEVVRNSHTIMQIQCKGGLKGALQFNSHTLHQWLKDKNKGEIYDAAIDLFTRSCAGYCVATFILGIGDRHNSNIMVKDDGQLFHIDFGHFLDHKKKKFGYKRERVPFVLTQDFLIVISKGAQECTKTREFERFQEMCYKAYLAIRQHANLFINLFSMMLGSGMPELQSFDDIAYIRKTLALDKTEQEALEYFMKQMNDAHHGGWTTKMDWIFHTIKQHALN
# T1 sequence (P27986 whole entry partner): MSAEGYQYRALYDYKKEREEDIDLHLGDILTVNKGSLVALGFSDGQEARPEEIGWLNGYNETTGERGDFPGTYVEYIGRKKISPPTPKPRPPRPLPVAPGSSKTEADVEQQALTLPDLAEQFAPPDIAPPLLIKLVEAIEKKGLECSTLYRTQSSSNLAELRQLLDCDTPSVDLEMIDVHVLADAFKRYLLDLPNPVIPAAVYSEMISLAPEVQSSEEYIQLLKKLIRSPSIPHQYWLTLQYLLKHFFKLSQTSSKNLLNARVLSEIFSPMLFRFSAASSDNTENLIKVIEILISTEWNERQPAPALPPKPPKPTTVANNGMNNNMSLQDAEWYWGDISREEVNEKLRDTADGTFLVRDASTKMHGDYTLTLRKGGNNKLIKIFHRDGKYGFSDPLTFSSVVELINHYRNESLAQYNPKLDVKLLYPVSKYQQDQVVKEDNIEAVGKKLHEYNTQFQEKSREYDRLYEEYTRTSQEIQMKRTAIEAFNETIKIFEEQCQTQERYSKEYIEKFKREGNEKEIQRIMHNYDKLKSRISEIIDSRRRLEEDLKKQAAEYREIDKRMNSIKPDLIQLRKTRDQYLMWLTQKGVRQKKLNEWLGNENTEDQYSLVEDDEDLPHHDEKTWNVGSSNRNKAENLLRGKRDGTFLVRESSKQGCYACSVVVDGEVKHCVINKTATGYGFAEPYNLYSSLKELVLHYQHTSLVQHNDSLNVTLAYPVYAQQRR
# In short: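 Purified recombinant human PI3Kα, β, γ or δ (0.25-0.3 μg/ml) preincubated 15 min at room temperature with compound (2% DMSO) and 10 μM PIP2, then reacted 1 h with 10 μM ATP. PIP3 product detected by competitive HTRF (GST-PH domain/biotin-PIP3); IC50 from 12-point curves, 20 μM to 0.1 nM, by nonlinear regression.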
# [2] = system: phospho-AKT in RAJI cells (PI3Kδ); experiment: PI3Kδ selective assay, phospho-AKT in RAJI cells; assay type: cell-based; conditions: RAJI cells stimulated with anti-human IgM; read-out: IC50 for phospho-AKT, RAJI cell model
# Text: A compound's ability in selectively inhibiting PI3Kδ can be assessed using RAJI cells, i.e., B lymphocyte cells derived from lymphoma patients. Briefly, serum-starved RAJI cells are stimulated with anti-human IgM, thereby causing signaling through the B-cell receptors, as described in, for example, He et al., Leukemia Research (2009) 33: 798-802. B-cell receptor signaling is important for the activation, differentiation, and survival of B cells and certain B-cell derived cancers. Reduction of phospho-AKT is indicative of compounds that may inhibit B-cell proliferation and function in certain diseases. By monitoring the reduction of phospho-AKT in stimulated RAJI cells (using for example, phospho-AKT antibodies), a compound's potential efficacy in selectively inhibiting PI3Kδ can be assessed.
# Balb/c splenic B cells = experiment: B cell activation and proliferation assay; assay type: cell-based; conditions: Mus musculus, column bins 1 μM to 100 nM (given as 100-1000) and Less than 100 nM, read-out: B cell proliferation EC50
# In short: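 Balb/c splenic B cells were isolated by Ficoll gradient and magnetic separation, plated at 50.000 cells/well in RPMI/10% FBS, and pre-incubated with compound for 30 min at 37° C (0.2% DMSO). Cells were stimulated for 72 h with a cocktail of 10 μg/ml LPS or 5 μg/ml anti-mouse IgM F(ab′)2 plus 2 ng/ml IL4. Alamar Blue fluorescence (560Ex/590Em) after 5 h gave IC50 or EC50.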
# PI3Kβ = target: T2, PI3Kβ (Homo sapiens, UniProt P42338); experiment: PI3-Kinase HTRF assay, PI3Kβ; assay type: biochemical; conditions: bins Greater than 10 μM and Greater than 1 μM to 10 μM; 10 μM ATP, PIP2 at 10 μM
# T2 construct: purchased Millipore Corporation 14-603-K
# T2 sequence (P42338 whole entry): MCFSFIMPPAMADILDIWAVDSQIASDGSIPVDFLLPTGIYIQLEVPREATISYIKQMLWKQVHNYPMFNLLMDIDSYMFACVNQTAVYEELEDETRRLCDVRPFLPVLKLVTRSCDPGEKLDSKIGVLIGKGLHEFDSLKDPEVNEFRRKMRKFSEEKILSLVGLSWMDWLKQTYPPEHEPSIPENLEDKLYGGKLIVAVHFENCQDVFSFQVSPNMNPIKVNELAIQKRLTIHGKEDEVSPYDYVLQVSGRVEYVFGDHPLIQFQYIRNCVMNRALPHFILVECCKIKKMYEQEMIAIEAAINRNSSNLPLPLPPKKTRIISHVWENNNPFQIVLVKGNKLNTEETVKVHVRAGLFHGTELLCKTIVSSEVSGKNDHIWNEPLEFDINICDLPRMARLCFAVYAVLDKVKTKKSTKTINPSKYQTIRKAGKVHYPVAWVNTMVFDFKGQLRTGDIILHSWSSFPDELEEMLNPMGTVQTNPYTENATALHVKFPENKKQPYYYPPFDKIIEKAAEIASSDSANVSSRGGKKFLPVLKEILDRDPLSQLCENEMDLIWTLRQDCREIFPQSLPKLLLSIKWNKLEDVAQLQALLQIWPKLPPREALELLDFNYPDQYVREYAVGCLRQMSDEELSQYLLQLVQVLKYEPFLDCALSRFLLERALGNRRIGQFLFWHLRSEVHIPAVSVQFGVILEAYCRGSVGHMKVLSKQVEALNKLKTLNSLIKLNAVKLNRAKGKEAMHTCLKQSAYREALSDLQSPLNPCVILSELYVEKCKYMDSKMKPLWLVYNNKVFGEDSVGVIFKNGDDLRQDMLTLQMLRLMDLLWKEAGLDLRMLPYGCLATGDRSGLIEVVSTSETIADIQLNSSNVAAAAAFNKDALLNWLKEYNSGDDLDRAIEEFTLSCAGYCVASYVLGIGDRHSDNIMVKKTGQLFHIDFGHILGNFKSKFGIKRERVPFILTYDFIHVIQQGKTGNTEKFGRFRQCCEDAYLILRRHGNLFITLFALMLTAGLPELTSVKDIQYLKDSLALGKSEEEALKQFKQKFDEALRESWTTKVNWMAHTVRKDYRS
# T2 sequence (P27986 whole entry partner): as the sequence (P27986 whole entry partner) above
# Text: A PI3-Kinase HTRF® assay kit (cat No. 33-016) purchased from Millipore Corporation was used to screen compounds provided herein. This assay used specific, high affinity binding of the GRPI pleckstrin homology (PH) domain to PIP3, the product of a Class 1A or 1B PI3 Kinase acting on its physiological substrate PIP2. During the detection phase of the assay, a complex was generated between the GST-tagged PH domain and biotinylated short chain PIP3. The biotinylated PIP3 and the GST-tagged PH domain recruited fluorophores (Streptavidin-Allophycocyanin and Europium-labeled anti-GST respectively) to form the fluorescence resonance energy transfer (FRET) architecture, generating a stable time-resolved FRET signal. The FRET complex was disrupted in a competitive manner by non-biotinylated PIP3, a product formed in the PI3 Kinase assay.
# PI3 Kinase α, β, γ and δ activity was assayed using the PI3 Kinase HTRF® assay kit (catalogue No. 33-016) purchased from Millipore Corporation. Purified recombinant PI3Kα (catalogue No. 14-602-K), PI3Kβ (catalogue No. 14-603-K), PI3Kγ (catalogue No. 14-558-K) and PI3Kδ (catalogue No. 14-604-K) were obtained from Millipore Corporation. Purified recombinant PI3K enzyme was used to catalyze the phosphorylation of phosphatidylinositol 4,5-bisphosphate (PIP2 at 10 μM) to phosphatidylinositol 3,4,5-trisphosphate (PIP3) in the presence of 10 μM ATP. The assay was carried out in 384-well format and detected using a Perkin Elmer EnVision Xcite Multilabel Reader. Emission ratios were converted into percent inhibitions and imported into GraphPad Prism software. The concentration necessary to achieve inhibition of enzyme activity by 50% (IC50) was calculated using concentrations ranging from 20 μM to 0.1 nM (12-point curve). IC50 values were determined using a nonlinear regression model available in GraphPad Prism 5. […]
# [3] = ranges less than 100 nM and between 100 nM and 1 μM (given as 100-1000)
"IC50 [1, 3]",IC50 (PI3Kα),IC50 [2],IC50 (PI3Kβ),IC50 ([1]; range between 1 μM and 10 μM),Structure (SMILES),EC50 (Balb/c splenic B cells)
< 0.1 µM,1 to 10 µM,–,–,–,C[C@H](Nc1nc(N)ncc1C#N)c1cc2cccc(-c3cccc(NS(=O)(=O)N(C)C)c3)c2c(=O)n1-c1ccccc1 [Compound 127],–
< 0.1 µM,–,< 0.1 µM,–,–,C[C@H](Nc1nc(N)ncc1-c1cccc(S(=O)(=O)N2CCCCC2)c1)c1cc2cccc(Cl)c2c(=O)n1-c1ccccc1 [Compound 157],–
–,1 to 10 µM,–,1 to 10 µM,–,C[C@H](Nc1nc(N)ncc1-c1nccs1)c1cc2cccc(Cl)c2c(=O)n1-c1ccccc1 [Compound 224],< 0.1 µM
–,1 to 10 µM,–,1 to 10 µM,–,CCn1cc(-c2cccc3cc([C@H](C)Nc4nc(N)ncc4C#N)n(-c4ccccc4)c(=O)c23)ccc1=O [Compound 230],< 0.1 µM
–,1 to 10 µM,–,1 to 10 µM,–,C[C@H](Nc1nc(N)ncc1C#N)c1cc2cccc(-c3ccc(=O)n(CC4CC4)c3)c2c(=O)n1-c1ccccc1 [Compound 232],< 0.1 µM
–,1 to 10 µM,–,1 to 10 µM,–,CC(C)n1cc(-c2cccc3cc([C@H](C)Nc4nc(N)ncc4C#N)n(-c4ccccc4)c(=O)c23)ccc1=O [Compound 234],< 0.1 µM
0.1 to 1 µM,–,< 0.1 µM,–,–,COc1cc(-c2cccc3cc(CNc4nc(N)ncc4C#N)n(-c4ccccc4)c(=O)c23)ccn1 [Compound 242],–
0.1 to 1 µM,–,< 0.1 µM,–,–,C[C@H](Nc1nc(N)ncc1C#N)c1cc2cccc(Cl)c2c(=O)n1-c1cc(F)cc(F)c1 [Compound 273],–
< 0.1 µM,–,–,–,–,C[C@H](Nc1nc(N)ncc1C#N)c1cc2cccc(Cl)c2c(=O)n1C [Compound 276],–
< 0.1 µM,1 to 10 µM,< 0.1 µM,–,–,C[C@H](Nc1nc(N)ncc1C#N)c1cc2cccc(Cl)c2c(=O)n1-c1cccc(C#N)c1 [Compound 285],–
< 0.1 µM,–,< 0.1 µM,1 to 10 µM,–,COc1cccc(-n2c([C@H](C)Nc3nc(N)ncc3C#N)cc3cccc(Cl)c3c2=O)c1 [Compound 288],–
–,1 to 10 µM,–,1 to 10 µM,–,C[C@H](Nc1nc(N)ncc1C#N)c1cc2cccc(Cl)c2c(=O)n1C1CCCCC1 [Compound 300],< 0.1 µM
0.1 to 1 µM,–,< 0.1 µM,–,–,CC(C)OC(=O)c1cccc(-n2c([C@H](C)Nc3nc(N)ncc3C#N)cc3cccc(Cl)c3c2=O)c1 [Compound 312],–
0.1 to 1 µM,1 to 10 µM,< 0.1 µM,–,–,COc1ncc(-c2cccc3cc([C@H](C)Nc4nc(N)ncc4C#N)n(C(C)C)c(=O)c23)cn1 [Compound 327],–
0.1 to 1 µM,–,< 0.1 µM,–,–,C[C@H](Nc1ncnc(N)c1C#N)c1cc2cccc(Cl)c2c(=O)n1-c1ccon1 [Compound 335],–
–,–,< 0.1 µM,–,1 to 10 µM,Cc1ncc(-c2cccc3cc([C@H](C)Nc4ncnc(N)c4C#N)n(-c4ccon4)c(=O)c23)cn1 [Compound 336],–
0.1 to 1 µM,–,< 0.1 µM,–,–,COc1ncc(-c2cccc3cc([C@H](C)Nc4ncnc(N)c4C#N)n(-c4ccccc4)c(=O)c23)cn1 [Compound 356],–

"IC50 [1, 3]",IC50 (PI3Kα),IC50 [2],IC50 (PI3Kβ),IC50 ([1]; range between 1 μM and 10 μM),Structure (SMILES),EC50 (Balb/c splenic B cells)
0.1 to 1 µM,–,< 0.1 µM,–,–,C[C@H](Nc1nc(N)ncc1-c1cn[nH]c1)c1cc2cccc(Cl)c2c(=O)n1-c1ccccc1 [Compound 378],–
< 0.1 µM,–,< 0.1 µM,–,–,C[C@H](Nc1nc(N)ncc1-c1ccoc1)c1cc2cccc(Cl)c2c(=O)n1-c1ccccc1 [Compound 379],–
< 0.1 µM,–,< 0.1 µM,1 to 10 µM,–,COc1ncc(-c2cnc(N)nc2N[C@@H](C)c2cc3cccc(Cl)c3c(=O)n2-c2ccccc2)s1 [Compound 382],–
< 0.1 µM,1 to 10 µM,< 0.1 µM,–,–,COc1ccc(-c2cnc(N)nc2N[C@@H](C)c2cc3cccc(Cl)c3c(=O)n2-c2ccccc2)cn1 [Compound 383],–
0.1 to 1 µM,–,< 0.1 µM,–,–,C[C@H](Nc1nc(N)ncc1-c1cncs1)c1cc2cccc(-c3ccc(=O)n(C)c3)c2c(=O)n1-c1ccccc1 [Compound 387],–
0.1 to 1 µM,–,< 0.1 µM,–,–,C[C@H](Nc1nc(N)ncc1-c1cscn1)c1cc2cccc(-c3ccc(=O)n(C)c3)c2c(=O)n1-c1ccccc1 [Compound 393],–
< 0.1 µM,–,< 0.1 µM,–,–,CC(=O)c1cnc(N)nc1N[C@@H](C)c1cc2cccc(Cl)c2c(=O)n1-c1ccccc1 [Compound 394],–
< 0.1 µM,–,< 0.1 µM,–,–,C[C@H](Nc1nc(N)ncc1-c1cccc(NS(=O)(=O)N(C)C)c1)c1cc2cccc(Cl)c2c(=O)n1-c1ccccc1 [Compound 410],–
< 0.1 µM,–,< 0.1 µM,–,–,C[C@H](Nc1nc(N)ncc1-c1cccc(S(=O)(=O)N(C)C)c1)c1cc2cccc(Cl)c2c(=O)n1-c1ccccc1 [Compound 413],–
< 0.1 µM,1 to 10 µM,< 0.1 µM,–,–,C[C@H](Nc1nc(N)ncc1-c1cccc(S(N)(=O)=O)c1)c1cc2cccc(Cl)c2c(=O)n1-c1ccccc1 [Compound 414],–
< 0.1 µM,–,< 0.1 µM,–,–,C=CS(=O)(=O)Nc1cccc(-c2cnc(N)nc2N[C@@H](C)c2cc3cccc(Cl)c3c(=O)n2-c2ccccc2)c1 [Compound 415],–
< 0.1 µM,1 to 10 µM,< 0.1 µM,–,–,CCS(=O)(=O)c1cccc(-c2cnc(N)nc2N[C@@H](C)c2cc3cccc(Cl)c3c(=O)n2-c2ccccc2)c1 [Compound 416],–
< 0.1 µM,1 to 10 µM,< 0.1 µM,–,–,CNS(=O)(=O)c1cccc(-c2cnc(N)nc2N[C@@H](C)c2cc3cccc(Cl)c3c(=O)n2-c2ccccc2)c1 [Compound 418],–
< 0.1 µM,–,< 0.1 µM,–,–,C[C@H](Nc1nc(N)ncc1-c1cccc(S(=O)(=O)N2CCCC2)c1)c1cc2cccc(Cl)c2c(=O)n1-c1ccccc1 [Compound 419],–
< 0.1 µM,1 to 10 µM,< 0.1 µM,–,–,C[C@H](Nc1ncncc1-c1cccc(S(=O)(=O)N(C)C)c1)c1cc2cccc(Cl)c2c(=O)n1-c1ccccc1 [Compound 422],–
0.1 to 1 µM,1 to 10 µM,< 0.1 µM,–,–,CC(C)C(=O)c1cnc(N)nc1N[C@@H](C)c1cc2cccc(Cl)c2c(=O)n1-c1ccccc1 [Compound 424],–
–,1 to 10 µM,–,1 to 10 µM,–,C[C@H](Nc1nc(N)ncc1C#N)c1cc2cccc(-c3ccnc(NS(C)(=O)=O)c3)c2c(=O)n1-c1ccccc1 [Compound 443],< 0.1 µM
